Source: patent US8568986B2, “Method of selecting an agent that improves periodontal disease” (Kao Corporation, priority 2009, dated 2013)

Columns and labels:
syrian hamsters = experiment: Alveolar bone resorption in floss-tied mandibular first molars of syrian hamsters; format: in vivo; conditions: syrian hamster; for Alveolar bone resorption depth (mm): 200 μL of 10 μM solution dropwise to floss-tied first molars twice a day for two weeks, control 2.87; for absorption of the alveolar bone: added dropwise to the oral cavity for two weeks
Description: The mandibule of syrian hamsters (three males, 7 weeks old) was extracted under anesthesia and a photograph was taken under the stereoscopic microscope. An evaluation site is the lingual surface of extraction mandibule. The obtained photographs were subjected to image analysis and a vertical distance from the first molar mesial cusp tip to the alveolar tip was measured.
Floss was tied around the left and right mandibular first molar teeth of other syrian hamsters (three males, 7 weeks old). From the next day on, 200 μL of a PBS solution containing 1% DMSO (concentration: 10 μM) of Compound 1 or 2 above was added dropwise to the same tied sites twice a day for two weeks and they were bred.
After the end of breeding, the mandibule was extracted under anesthesia and photographs were taken under the stereoscopic microscope. An evaluation site is the lingual surface of extraction mandibule and the taken photographs were subjected to image analysis. […] a vertical distance from the first molar mesial cusp tip to the alveolar tip was measured.
The alveolar bone resorption depth (a value before addition is subtracted from a value after addition for two weeks) was measured from the vertical distance from the first molar mesial cusp tip to the alveolar tip before addition of the test drug and after addition of the test drug for two weeks.

[1] = system: Vibrio harveyi BB170 strain (AI-2 reporter bacterium); experiment: AI-2 activity inhibitory effect, photogenesis intensity of AI-2 reporter bacterium after addition of DPD; format: cell-based; conditions: relative to control with only DPD added (=100); 10 min preincubation, 4 h culture at 30° C
Description: The method of screening an improving agent or preventive agent for periodontal disease of the present invention containing mixing a bacterium having an autoinducer-2-mediated quorum sensing system with a test drug and selecting a test drug having an autoinducer-2 activity inhibitory effect as an improving agent or preventive agent for periodontal disease. For example, a Vibrio harveyi BB 170 strain is prepared in a culture medium at 1000- to 10000-fold dilution (preferably 4000- to 5000-fold) and preincubated with a test compound solution at room temperature for 1 to 30 minutes (preferably for 10 minutes). Then, AI-2 was added to the resultant solution, which was subjected to aerobic shaking culture at 30±5° C. Two (2) to six (6) hours later (preferably four (4) hours later), the photogenesis intensity is measured with a chemiluminescence analyzer. The final concentration of AI-2 is from 0.001 to 100 μM (preferably 10 μM). The final concentration of the test compound solutions is from 0.0001 to 0.1% or from 1 to 100 μM. Each concentration is not limited thereto. The photogenesis intensity when a control obtained by adding only the AI-2 is mixed with the test compound solution is measured as a relative value to the photogenesis intensity of control so that the AI-2 activity inhibitory effect of the test compound can be measured. The bacterium having an autoinducer-2-mediated quorum sensing system is not particularly limited. A reporter bacterium which recognizes the autoinducer-2 thereby emitting light is preferred and dental bacteria and periodontal pathogens can also be used. Further, the bacterium having an autoinducer-2-mediated quorum sensing system which is collected from the oral cavity of a subject can also be used as a specimen.
A Vibrio harveyi BB170 strain (cultured in an AB medium at 30° C. overnight) was used as an AI-2 reporter bacterium and it was 4500-fold diluted with an AB culture medium to prepare a reporter bacterium liquid. A reporter bacterium liquid was mixed with each of the test drugs, which was preincubated at room temperature for 10 minutes, followed by addition of DPD and aerobic shaking culture at 30° C. Four (4) hours later, the photogenesis intensity was measured with the chemiluminescence analyzer (LB940 type, manufactured by Berthold Japan co. ltd.). AI-2 was quantified from the measured photogenesis intensity in the same manner as described in Example 1.
The amount of AI-2 was a relative value to the amount of DPD of the control (the amount of AI-2) when one obtained by adding only the DPD without adding the test drugs was used as a control.

| SMILES | Alveolar bone resorption depth (mm) (syrian hamsters) | absorption of the alveolar bone (syrian hamsters) | AI-2 amount (relative value) [1] |
| --- | --- | --- | --- |
| COc1ccc(C2OC(=O)C=C2Br)cc1 (centres unmarked) [Compound 1, 4-bromo-5-(4-methoxyphenyl)-2(5H)-furanone] | 2.50 | suppressed | 29.6 |
| O=C1OC(O)C(Br)=C1Br (centres unmarked) [Compound 2, 3,4-dibromo-5-hydroxy-2(5H)-furanone] | 2.62 | suppressed | 0 |
| COc1ccc(C2(OC)OC(=O)C=C2Br)cc1 (centres unmarked) [Compound 3, 4-bromo-5-methoxy-5-(4-methoxyphenyl)-2(5H)-furanone] |  |  | 62.5 |
| COc1ccc(C2(Oc3ccc(C(=O)O)cc3)OC(=O)C=C2Br)cc1 (centres unmarked) [Compound 4, 4-{[3-bromo-2-(4-methoxyphenyl)-5-oxo-2,5-dihydro-2-furanyl]oxy}benzoate] |  |  | 76.0 |
| CC1=C(O)C(=O)C(C)O1 (centres unmarked) [Compound 5, 4-hydroxy-2,5-dimethyl-3(2H)-furanone, reference compound] |  |  | 77.0 |
| COC1(c2ccccc2)OC=C(c2ccccc2)C1=O (centres unmarked) [Compound 6, 2-methoxy-2,4-diphenyl-3(2H)-furanone, reference compound] |  |  | 88.9 |
| CCCCCC1=CCCC1=O [Compound 7, 2-pentyl-2-cyclopentene-1-one, reference compound] |  |  | 63.4 |
